Results taken from US20210144998A1 (priority 2019, published 2021).
Structures can show the parent of a compound that is named as a salt. Where two headings read alike, the source gives them in different places.

Assays:
VisNR = conditions: Microsource

For `CN1CCN(c2c(F)cc3c(=O)c(C(=O)O)cn4c3c2SCC4)CC1` [RUFLOXACIN HCl], the “activity annotation LdtR” value (LdtR; NIHCC) was “RUFLOXACIN HCl (2; inactive LdtR & RpoH NIHCC)” and the “activity annotation RpoH” value (RpoH; NIHCC) was “RUFLOXACIN HCl (2; inactive LdtR & RpoH NIHCC)”.
With `NC(=O)c1ncn([C@@H]2O[C@H](CO)[C@@H](O)[C@H]2O)n1` [Ribavirin] the “activity annotation RpoH” value (RpoH; Biomol FDA) was “Ribavirin (2; inactive RpoH Biomol FDA)”.
For `CC(=O)NC[C@H]1CN(c2ccc(N3CCOCC3)c(F)c2)C(=O)O1` [LINEZOLIDE], the “activity annotation, target not given” value (NIHCC) was “LINEZOLIDE (1; inactive NIHCC)”.
In the case of `O=C(O)CN(CCN(CC(=O)O)CC(=O)O)CCN(CC(=O)O)CC(=O)O` [Diethylenetriaminepentaacetic acid], the “activity annotation, target not given” value (LOPAC) is reported as “Diethylenetriaminepentaacetic acid (1; inactive LOPAC)”.
For `CC[C@H]1OC(=O)[C@H](C)[C@@H](O[C@H]2C[C@@](C)(OC)[C@@H](O)[C@H](C)O2)[C@H](C)[C@@H](O[C@@H]2O[C@H](C)C[C@H](N(C)C)[C@H]2O)[C@](C)(OC)C[C@@H](C)C(=O)[C@H](C)[C@@H](O)[C@]1(C)O` [CLARITHROMYCIN], the “activity annotation LdtR” value (LdtR; NIHCC) was “CLARITHROMYCIN (2; inactive LdtR & RpoH NIHCC)” and the “activity annotation RpoH” value (RpoH; NIHCC) was “CLARITHROMYCIN (2; inactive LdtR & RpoH NIHCC)”.
In the case of `CCn1cc(C(=O)O)c(=O)c2cc(F)c(N3CCN(C)CC3)cc21.CS(=O)(=O)O` [PEFLOXACIN MESYLATE], the “activity annotation, target not given” value (NIHCC) is reported as “PEFLOXACIN MESYLATE (2; inactive NIHCC)”.
For `CCn1cc(C(=O)O)c(=O)c2cc(F)c(N3CCNC(C)C3)c(F)c21.Cl` (stereo not shown) [Lomefloxacin hydrochloride], the “activity annotation VisNR” value (VisNR) was “Lomefloxacin hydrochloride (2; inactive LOPAC & VisNR Microsource)”.
In the case of `O=c1[nH]cc(F)c(=O)[nH]1` [5-Fluorouracil], the “activity annotation LdtR” value (LdtR; LOPAC) is reported as 5-Fluorouracil (2; inactive LdtR LOPAC).
